Measurements as given in ChEMBL document CHEMBL5678818, “Discovery of potent SOS1 inhibitors that block RAS activation via disruption of the RAS-SOS1 interaction” (Proc Natl Acad Sci U S A, 2019).

Key:
[1] = target: Mitotic checkpoint serine/threonine-protein kinase BUB1 (Homo sapiens) (UniProt O43683); test: Inhibition of BUB1 (unknown origin) assessed as residual activity at 1000 nM by KINOMEscan analysis relative to control
[2] = test system: Mast/stem cell growth factor receptor Kit (Homo sapiens), P10721 [L576P]; test: Inhibition of KIT L576P mutant (unknown origin) assessed as residual activity at 1000 nM by KINOMEscan analysis relative to control
[3] = target: MAP/microtubule affinity-regulating kinase 3 (Homo sapiens) (UniProt P27448); test: Inhibition of MARK3 (unknown origin) assessed as residual activity at 1000 nM by KINOMEscan analysis relative to control
[4] = target: T1, Tyrosine-protein kinase Mer (Homo sapiens) (UniProt Q12866); test: Inhibition of MERTK (unknown origin) assessed as residual activity at 1000 nM by KINOMEscan analysis relative to control
T1 sequence (whole entry): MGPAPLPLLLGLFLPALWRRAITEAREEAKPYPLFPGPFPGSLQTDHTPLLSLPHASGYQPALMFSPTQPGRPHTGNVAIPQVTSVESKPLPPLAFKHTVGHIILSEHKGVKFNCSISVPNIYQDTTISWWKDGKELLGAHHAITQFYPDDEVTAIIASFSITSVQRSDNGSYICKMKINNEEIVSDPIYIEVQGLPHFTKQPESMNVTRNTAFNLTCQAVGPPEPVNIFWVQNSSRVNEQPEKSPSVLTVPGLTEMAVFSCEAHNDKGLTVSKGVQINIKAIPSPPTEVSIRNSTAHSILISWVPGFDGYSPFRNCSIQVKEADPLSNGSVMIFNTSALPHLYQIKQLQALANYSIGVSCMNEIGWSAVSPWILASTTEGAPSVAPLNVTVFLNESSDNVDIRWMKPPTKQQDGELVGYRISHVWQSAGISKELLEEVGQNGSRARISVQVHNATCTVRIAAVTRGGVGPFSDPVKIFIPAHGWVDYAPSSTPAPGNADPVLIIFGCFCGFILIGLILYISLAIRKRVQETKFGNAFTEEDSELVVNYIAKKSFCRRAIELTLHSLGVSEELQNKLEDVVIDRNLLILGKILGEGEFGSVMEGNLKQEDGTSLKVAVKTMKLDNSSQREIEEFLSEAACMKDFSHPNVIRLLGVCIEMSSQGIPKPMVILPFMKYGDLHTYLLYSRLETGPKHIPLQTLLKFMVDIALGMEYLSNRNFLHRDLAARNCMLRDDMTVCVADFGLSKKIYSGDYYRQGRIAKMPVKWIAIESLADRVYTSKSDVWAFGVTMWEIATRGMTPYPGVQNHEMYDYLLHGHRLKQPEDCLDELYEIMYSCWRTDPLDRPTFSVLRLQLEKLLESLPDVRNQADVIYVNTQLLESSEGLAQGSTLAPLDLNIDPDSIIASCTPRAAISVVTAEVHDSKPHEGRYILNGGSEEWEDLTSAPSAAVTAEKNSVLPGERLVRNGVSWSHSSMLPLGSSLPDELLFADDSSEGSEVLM

[5] = test system: Phosphatidylinositol 4,5-bisphosphate 3-kinase catalytic subunit alpha isoform (Homo sapiens), P42336 [E545A]; test: Inhibition of PIK3CA E545A mutant (unknown origin) assessed as residual activity at 1000 nM by KINOMEscan analysis relative to control
[6] = target: Phosphatidylinositol 4,5-bisphosphate 3-kinase catalytic subunit beta isoform (Homo sapiens) (UniProt P42338); test: Inhibition of PIK3CB (unknown origin) assessed as residual activity at 1000 nM by KINOMEscan analysis relative to control
[7] = target: Ribosomal protein S6 kinase alpha-2 (Homo sapiens) (UniProt Q15349); test: Inhibition of C-terminal RSK3 […] domain 2 (unknown origin) assessed as residual activity at 1000 nM by KINOMEscan analysis relative to control
[8] = target: T2, Serine/threonine-protein kinase TAO2 (Homo sapiens) (UniProt Q9UL54); test: Inhibition of TAOK2 (unknown origin) assessed as residual activity at 1000 nM by KINOMEscan analysis relative to control
T2 sequence (whole entry): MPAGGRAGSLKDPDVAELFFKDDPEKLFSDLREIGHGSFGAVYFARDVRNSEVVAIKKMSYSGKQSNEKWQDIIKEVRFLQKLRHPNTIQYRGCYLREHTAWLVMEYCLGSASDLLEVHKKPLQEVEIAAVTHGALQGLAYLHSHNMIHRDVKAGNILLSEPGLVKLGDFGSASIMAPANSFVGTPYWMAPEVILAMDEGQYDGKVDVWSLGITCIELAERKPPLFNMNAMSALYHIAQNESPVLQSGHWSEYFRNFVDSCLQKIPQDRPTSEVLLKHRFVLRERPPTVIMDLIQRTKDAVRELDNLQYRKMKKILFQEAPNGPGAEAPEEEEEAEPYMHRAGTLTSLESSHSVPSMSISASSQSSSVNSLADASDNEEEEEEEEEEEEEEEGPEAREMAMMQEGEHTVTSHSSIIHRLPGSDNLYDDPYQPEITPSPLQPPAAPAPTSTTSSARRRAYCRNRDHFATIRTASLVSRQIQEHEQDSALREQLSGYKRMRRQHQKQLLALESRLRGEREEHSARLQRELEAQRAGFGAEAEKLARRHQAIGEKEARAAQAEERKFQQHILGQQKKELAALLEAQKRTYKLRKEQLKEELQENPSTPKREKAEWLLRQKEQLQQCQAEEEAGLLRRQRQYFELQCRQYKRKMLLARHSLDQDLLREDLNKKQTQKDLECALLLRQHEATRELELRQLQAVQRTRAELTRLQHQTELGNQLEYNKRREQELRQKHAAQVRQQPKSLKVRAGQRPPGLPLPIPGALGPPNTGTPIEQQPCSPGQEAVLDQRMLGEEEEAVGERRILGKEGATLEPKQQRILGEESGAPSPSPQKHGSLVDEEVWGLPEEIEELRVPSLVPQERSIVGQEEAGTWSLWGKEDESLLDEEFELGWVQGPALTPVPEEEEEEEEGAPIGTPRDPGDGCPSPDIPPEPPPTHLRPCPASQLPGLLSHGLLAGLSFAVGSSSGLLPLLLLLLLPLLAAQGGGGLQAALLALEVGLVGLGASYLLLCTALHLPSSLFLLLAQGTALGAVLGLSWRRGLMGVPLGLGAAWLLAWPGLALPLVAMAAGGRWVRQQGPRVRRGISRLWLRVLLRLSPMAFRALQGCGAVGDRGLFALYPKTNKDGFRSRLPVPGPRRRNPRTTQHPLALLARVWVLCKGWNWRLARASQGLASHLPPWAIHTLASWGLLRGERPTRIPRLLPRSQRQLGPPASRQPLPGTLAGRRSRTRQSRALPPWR

[9] = target: Microtubule-associated serine/threonine-protein kinase 1 (Homo sapiens) (UniProt Q9Y2H9); test: Inhibition of MAST1 (unknown origin) assessed as residual activity at 1000 nM by KINOMEscan analysis relative to control
Microtubule-associated serine/threonine-protein kinase 1 (Homo sapiens), sequence (Q9Y2H9 whole entry, looked up): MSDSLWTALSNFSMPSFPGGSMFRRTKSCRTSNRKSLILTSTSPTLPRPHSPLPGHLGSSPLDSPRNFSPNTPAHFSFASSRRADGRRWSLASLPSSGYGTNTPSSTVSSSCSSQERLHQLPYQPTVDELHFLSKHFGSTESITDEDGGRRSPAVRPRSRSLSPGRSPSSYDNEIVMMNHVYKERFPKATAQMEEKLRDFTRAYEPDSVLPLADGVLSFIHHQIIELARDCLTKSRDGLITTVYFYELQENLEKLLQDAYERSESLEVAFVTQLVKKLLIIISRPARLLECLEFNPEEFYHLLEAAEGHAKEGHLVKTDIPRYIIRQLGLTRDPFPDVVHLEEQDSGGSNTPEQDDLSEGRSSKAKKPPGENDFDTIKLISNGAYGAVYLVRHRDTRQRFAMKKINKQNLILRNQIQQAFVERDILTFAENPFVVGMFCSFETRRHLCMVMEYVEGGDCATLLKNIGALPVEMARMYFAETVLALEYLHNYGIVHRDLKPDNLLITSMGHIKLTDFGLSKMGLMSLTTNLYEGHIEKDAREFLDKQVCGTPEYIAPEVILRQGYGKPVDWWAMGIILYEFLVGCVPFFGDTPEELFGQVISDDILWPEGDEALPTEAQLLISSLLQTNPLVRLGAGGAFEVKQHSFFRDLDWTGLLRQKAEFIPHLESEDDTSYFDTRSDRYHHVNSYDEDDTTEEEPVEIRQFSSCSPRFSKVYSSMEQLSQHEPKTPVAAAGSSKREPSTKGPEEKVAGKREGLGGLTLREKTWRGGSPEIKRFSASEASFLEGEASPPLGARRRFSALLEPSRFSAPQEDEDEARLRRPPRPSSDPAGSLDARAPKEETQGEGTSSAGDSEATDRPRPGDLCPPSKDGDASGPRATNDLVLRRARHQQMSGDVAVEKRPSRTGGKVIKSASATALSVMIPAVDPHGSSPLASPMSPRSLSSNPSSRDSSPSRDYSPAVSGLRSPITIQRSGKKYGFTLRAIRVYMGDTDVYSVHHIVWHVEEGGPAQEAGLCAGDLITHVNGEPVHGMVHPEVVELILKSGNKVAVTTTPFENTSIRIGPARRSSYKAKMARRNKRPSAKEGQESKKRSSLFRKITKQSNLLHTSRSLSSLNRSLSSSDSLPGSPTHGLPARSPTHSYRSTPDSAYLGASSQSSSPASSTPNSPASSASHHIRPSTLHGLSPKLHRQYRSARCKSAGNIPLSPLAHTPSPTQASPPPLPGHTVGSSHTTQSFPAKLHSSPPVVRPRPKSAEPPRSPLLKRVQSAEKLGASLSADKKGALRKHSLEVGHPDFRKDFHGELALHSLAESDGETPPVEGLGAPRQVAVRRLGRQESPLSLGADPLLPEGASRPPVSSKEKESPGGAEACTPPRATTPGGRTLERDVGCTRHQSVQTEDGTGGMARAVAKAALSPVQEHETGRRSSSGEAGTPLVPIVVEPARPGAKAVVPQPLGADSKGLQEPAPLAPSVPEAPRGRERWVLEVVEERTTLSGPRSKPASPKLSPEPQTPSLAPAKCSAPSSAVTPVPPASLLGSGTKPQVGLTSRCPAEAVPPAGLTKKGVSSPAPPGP

Ribosomal protein S6 kinase alpha-2 (Homo sapiens), sequence (Q15349 whole entry): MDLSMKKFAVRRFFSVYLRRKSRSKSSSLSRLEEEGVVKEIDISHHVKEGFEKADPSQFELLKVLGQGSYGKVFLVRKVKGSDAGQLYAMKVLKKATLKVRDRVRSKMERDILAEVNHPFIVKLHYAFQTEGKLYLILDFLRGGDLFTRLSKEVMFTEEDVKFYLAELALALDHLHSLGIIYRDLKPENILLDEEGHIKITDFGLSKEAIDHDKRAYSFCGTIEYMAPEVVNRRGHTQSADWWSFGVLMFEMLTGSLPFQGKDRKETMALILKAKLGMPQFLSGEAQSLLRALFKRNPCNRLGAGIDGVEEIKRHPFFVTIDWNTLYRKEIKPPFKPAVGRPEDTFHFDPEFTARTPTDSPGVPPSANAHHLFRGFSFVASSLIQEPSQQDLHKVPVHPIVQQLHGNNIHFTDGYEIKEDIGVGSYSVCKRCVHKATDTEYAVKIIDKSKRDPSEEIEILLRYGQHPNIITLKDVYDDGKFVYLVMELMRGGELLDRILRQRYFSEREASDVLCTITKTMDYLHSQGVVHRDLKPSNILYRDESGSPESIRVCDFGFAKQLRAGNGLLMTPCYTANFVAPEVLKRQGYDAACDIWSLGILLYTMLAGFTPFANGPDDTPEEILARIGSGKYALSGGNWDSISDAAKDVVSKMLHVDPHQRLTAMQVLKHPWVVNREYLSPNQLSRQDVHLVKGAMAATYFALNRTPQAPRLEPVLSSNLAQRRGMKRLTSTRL
MAP/microtubule affinity-regulating kinase 3 (Homo sapiens), sequence (P27448 whole entry, looked up): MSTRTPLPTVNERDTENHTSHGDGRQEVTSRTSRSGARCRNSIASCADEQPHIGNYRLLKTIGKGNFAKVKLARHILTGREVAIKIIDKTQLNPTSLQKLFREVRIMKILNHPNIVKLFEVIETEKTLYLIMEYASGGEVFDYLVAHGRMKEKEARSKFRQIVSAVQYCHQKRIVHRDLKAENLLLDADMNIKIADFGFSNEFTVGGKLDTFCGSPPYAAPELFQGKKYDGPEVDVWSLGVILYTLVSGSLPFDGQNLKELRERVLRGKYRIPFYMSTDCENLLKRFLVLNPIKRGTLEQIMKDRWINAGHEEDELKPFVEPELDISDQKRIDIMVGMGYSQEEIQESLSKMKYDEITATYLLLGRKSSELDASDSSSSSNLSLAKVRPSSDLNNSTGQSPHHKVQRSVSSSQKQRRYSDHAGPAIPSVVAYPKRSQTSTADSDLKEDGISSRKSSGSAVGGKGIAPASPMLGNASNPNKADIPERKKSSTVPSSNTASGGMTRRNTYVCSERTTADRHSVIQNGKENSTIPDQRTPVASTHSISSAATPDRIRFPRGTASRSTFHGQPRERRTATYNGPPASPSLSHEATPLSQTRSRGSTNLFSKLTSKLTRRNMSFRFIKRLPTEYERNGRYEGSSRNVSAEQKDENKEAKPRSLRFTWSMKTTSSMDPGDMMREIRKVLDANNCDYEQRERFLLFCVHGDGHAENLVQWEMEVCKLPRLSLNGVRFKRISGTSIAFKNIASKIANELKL
Mast/stem cell growth factor receptor Kit (Homo sapiens), P10721 [L576P], sequence (P10721 whole entry L576P): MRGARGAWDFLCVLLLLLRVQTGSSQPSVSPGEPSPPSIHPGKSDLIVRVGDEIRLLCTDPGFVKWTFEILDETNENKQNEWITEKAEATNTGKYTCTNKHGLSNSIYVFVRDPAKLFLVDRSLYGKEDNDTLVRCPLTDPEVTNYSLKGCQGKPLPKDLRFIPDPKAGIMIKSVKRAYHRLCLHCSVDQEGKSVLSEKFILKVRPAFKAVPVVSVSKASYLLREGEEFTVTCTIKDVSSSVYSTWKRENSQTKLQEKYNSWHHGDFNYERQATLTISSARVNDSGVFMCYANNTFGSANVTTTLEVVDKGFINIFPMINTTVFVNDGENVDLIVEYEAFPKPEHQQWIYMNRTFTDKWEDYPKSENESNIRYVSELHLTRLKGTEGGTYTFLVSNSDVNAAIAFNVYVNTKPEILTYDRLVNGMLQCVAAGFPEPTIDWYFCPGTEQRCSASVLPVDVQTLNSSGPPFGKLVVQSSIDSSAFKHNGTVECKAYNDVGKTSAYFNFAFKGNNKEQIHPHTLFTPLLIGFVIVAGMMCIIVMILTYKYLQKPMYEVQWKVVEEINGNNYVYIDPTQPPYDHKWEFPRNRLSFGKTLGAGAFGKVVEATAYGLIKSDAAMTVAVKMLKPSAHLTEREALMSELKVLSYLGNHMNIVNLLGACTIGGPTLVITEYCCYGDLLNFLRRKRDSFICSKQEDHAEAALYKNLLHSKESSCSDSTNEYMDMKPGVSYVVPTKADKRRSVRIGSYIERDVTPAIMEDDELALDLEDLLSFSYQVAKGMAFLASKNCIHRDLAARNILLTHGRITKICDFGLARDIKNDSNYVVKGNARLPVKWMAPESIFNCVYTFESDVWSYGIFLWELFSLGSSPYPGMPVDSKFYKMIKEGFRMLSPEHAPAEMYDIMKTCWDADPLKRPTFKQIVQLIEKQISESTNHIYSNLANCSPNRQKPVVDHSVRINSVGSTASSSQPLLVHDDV
Phosphatidylinositol 4,5-bisphosphate 3-kinase catalytic subunit alpha isoform (Homo sapiens), P42336 [E545A], sequence (P42336 whole entry E545A, canonical isoform): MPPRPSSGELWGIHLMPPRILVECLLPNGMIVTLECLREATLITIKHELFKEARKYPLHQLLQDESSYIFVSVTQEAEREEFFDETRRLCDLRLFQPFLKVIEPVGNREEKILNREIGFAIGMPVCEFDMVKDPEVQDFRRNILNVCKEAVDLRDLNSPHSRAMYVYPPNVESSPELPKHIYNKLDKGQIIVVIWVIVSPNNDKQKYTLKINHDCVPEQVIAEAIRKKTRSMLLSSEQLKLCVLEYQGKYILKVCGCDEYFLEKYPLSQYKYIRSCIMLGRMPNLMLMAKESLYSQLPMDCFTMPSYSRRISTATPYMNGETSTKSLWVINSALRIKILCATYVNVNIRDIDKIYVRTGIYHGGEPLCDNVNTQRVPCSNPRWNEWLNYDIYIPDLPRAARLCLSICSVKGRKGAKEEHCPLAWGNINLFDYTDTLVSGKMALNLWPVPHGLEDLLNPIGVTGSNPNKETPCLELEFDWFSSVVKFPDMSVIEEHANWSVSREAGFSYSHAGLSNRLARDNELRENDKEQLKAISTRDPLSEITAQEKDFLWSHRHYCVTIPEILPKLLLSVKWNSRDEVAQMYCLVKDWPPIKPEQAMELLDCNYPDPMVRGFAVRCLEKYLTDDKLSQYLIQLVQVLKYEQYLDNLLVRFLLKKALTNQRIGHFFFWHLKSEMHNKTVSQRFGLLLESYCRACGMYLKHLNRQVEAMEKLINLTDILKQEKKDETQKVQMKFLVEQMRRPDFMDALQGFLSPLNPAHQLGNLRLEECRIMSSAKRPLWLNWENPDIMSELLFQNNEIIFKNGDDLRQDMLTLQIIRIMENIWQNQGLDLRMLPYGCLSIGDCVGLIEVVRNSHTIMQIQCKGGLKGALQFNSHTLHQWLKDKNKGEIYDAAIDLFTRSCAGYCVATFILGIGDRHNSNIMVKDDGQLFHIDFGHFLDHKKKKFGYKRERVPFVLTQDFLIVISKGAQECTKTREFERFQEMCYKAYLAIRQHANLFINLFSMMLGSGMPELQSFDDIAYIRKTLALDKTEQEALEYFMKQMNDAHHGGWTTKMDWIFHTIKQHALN

SMILES | Activity [1] | Activity [2] | Activity [3] | Activity [4] | Activity [5] | Activity [6] | Activity [7] | Activity [8] | Activity [9]
COc1cc2ncnc(N[C@H](C)c3cccc4ccccc34)c2cc1OC | 100% | 95% | 64% | 96% | 91% | 13% | 96% | 90% | 91%
COc1cc2nc(C)nc(N[C@H](C)c3cccc(-c4cn[nH]c4)c3)c2cc1OC | 100% | 85% | 100% | 55% | 66% | 89% | 67% | 78% | 64%
